Patent publication US9611257B2, “PRMT5 inhibitors and uses thereof” (Epizyme, Inc., priority 2012, dated 2017)

Biological target: T1, PRMT5/MEP50 (Homo sapiens, UniProt O14744)
T1 construct: Expressed full-length human Flag-PRMT5/6His-MeP50 protein complex was purified; made in house; host or cells: Spodoptera frugiperda (SF9) insect cells, baculovirus (pDEST8)
Test: PRMT5 Biochemical Assay (PRMT5/MEP50 enzyme assay on peptide substrate, 3H-SAM Flashplate)
Conditions: PRMT5/MEP50 4 nM, 3H-SAM 75 nM, peptide 40 nM, 30 min preincubation at 25 degrees Celsius
Protocol: • Mobile phase A: 4 L H2O\1.5 ml TFA; Mobile phase B: 4 L ACN\0.75 ml TFA • Column: HPLC-D: Innovation C18 UPLC Column 2.1×30 mm, 2.6 um • HPLC-E: Xtimate C18 2.1*30 mm*3 um • HPLC-H: Innovation C18 UPLC Column 2.1×30 mm, 2.6 um • Column temperature: 50° C.; Wavelength: 220 nm & 254 nm & 215 nm General HPLC Conditions (Basic) • Mobile phase A: 4 L H2O\2 ml NH4OH; Mobile phase B: Acetonitrile • Column: HPLC-B: XBridge C18 2.1*50 mm, 5 um • HPLC-C: Xbridge shield RP18 2.1*50 mm, 5 u • Column temperature: 30° C.; Wavelength: 220 nm & 254 nm & 215 nm General HPLC Conditions (Neutral) • Mobile phase A: H2O; Mobile phase B: Acetonitrile • Column: HPLC-B: XBridge C18 2.1*50 mm, 5 um • HPLC-C: Xbridge shield RP18 2.1*50 mm, 5 um • Column temperature: 30° C.; Wavelength: 220 nm & 254 nm & 215 nm Method A (0-30AB_6MIN) Flow Rate: 0.8 ml/min Gradient: 0% B to 30% B in 4.2 min, holding 30% B for 1 min, 30% B to 0% B in 0.01 min, holding 0% B for 1.09 min and then end. Method B (0-60AB_6MIN) • Flow Rate: 0.8 ml/min • Gradient: 0% B to 60% B in 4.2 min, holding 60% B for 1 min, 60% B to 0% B in 0.01 min, holding 0% B for 1.09 min and then end. Method C (10-80AB_6MIN) • Flow Rate: 0.8 ml/min • Gradient: 10% B to 80% B in 4.2 min, holding 80% B for 1 min, 80% B to 10% B in 0.01 min, holding 10% B for 1.09 min and then end. […]

T1 sequence (O14744 with tags, fused parts or gaps): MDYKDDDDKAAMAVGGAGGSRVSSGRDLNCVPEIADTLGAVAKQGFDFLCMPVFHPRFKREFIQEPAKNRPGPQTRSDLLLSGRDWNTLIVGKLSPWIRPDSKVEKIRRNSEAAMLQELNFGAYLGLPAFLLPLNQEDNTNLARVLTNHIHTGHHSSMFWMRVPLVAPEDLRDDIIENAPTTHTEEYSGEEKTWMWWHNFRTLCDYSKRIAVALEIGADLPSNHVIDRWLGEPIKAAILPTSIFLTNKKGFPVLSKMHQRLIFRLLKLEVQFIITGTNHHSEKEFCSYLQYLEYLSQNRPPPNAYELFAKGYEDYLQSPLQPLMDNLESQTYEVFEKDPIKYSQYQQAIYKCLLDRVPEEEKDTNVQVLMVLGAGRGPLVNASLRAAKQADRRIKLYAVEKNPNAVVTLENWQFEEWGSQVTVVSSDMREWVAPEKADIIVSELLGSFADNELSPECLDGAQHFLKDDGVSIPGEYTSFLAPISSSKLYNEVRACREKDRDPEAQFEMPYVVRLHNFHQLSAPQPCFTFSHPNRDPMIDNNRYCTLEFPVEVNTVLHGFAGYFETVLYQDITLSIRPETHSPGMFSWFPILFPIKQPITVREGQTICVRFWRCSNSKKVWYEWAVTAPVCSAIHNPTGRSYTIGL
T1 sequence (Q9BQA1 with tags, fused parts or gaps partner limits assumed): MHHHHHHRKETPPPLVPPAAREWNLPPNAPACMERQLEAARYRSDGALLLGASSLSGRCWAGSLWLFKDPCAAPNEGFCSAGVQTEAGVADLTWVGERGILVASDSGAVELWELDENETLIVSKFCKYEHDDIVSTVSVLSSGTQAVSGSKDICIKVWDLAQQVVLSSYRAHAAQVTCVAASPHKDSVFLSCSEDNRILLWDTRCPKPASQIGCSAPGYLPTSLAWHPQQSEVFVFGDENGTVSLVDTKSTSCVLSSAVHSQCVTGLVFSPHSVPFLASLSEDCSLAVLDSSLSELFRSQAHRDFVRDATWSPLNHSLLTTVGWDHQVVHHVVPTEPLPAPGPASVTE

O=C(NC1CCOCC1)c1ccn(CC(O)CN2CCc3ccccc3C2)c(=O)c1 (centres unmarked) [Compound 33]
IC50: 0.101 to 1 µM

O=C(NC1CCOCC1)c1cc(=O)n(CC(O)CN2CCc3ccccc3C2)cn1 (centres unmarked) [Compound 34]
IC50: 1 to 10 µM
